Test results from ChEMBL document CHEMBL4270624, “Synthesis and antibacterial evaluation of 13-substituted cycloberberine derivatives as a novel class of anti-MRSA agents” (Eur J Med Chem, 2018).

Tests used:
[1] = system: Staphylococcus aureus; assay: Antibacterial activity against methicillin-sensitive Staphylococcus aureus ATCC 29213 after 18 hrs by agar dilution method; assay type: functional; conditions: ATCC 29213, 18 h
[2] = system: Staphylococcus aureus; assay: Antibacterial activity against methicillin-sensitive Staphylococcus aureus 16-1 clinical isolate after 18 hrs by agar dilution method; assay type: functional; conditions: 16-1, 18 h
[3] = system: Staphylococcus aureus; assay: Antibacterial activity against methicillin-resistant Staphylococcus aureus ATCC 33591 after 18 hrs by agar dilution method; assay type: functional; conditions: ATCC 33591, 18 h
[4] = system: Staphylococcus aureus; assay: Antibacterial activity against methicillin-resistant Staphylococcus aureus ATCC 43300 after 18 hrs by agar dilution method; assay type: functional; conditions: ATCC 43300, 18 h
[5] = system: Staphylococcus aureus; assay: Antibacterial activity against methicillin-resistant Staphylococcus aureus ATCC BAA-976 after 18 hrs by agar dilution method; assay type: functional; conditions: ATCC BAA-976, 18 h
[6] = system: Staphylococcus aureus; assay: Antibacterial activity against methicillin-resistant Staphylococcus aureus ATCC BAA-1708 after 18 hrs by agar dilution method; assay type: functional; conditions: ATCC BAA-1708, 18 h
[7] = system: Staphylococcus aureus; assay: Antibacterial activity against methicillin-resistant Staphylococcus aureus 13-18 clinical isolate after 18 hrs by agar dilution method; assay type: functional; conditions: 13-18, 18 h
[8] = system: Staphylococcus aureus; assay: Antibacterial activity against methicillin-resistant Staphylococcus aureus 13-23 clinical isolate after 18 hrs by agar dilution method; assay type: functional; conditions: 13-23, 18 h
[9] = system: Staphylococcus aureus; assay: Antibacterial activity against methicillin-resistant Staphylococcus aureus 16-30 clinical isolate after 18 hrs by agar dilution method; assay type: functional; conditions: 16-30, 18 h
[10] = system: Staphylococcus aureus; assay: Antibacterial activity against methicillin-resistant Staphylococcus aureus 16-34 clinical isolate after 18 hrs by agar dilution method; assay type: functional; conditions: 16-34, 18 h
[11] = Stability of the compound in Sprague-Dawley rat whole blood assessed as parent compound remaining after 1 hr by LC-MS/MS analysis; assay type: ADME, tissue-based; conditions: read-out: Stability
[12] = Stability of the compound in Sprague-Dawley rat whole blood assessed as parent compound remaining after 24 hrs by LC-MS/MS analysis; assay type: ADME, tissue-based; conditions: read-out: Stability
[13] = Toxicity in iv dosed Kunming mouse administered as single dose measured for 7 days; assay type: organism-based; conditions: in vivo

| Structure (SMILES) | MIC [1] | MIC [2] | MIC [3] | MIC [4] | MIC [5] | MIC [6] | MIC [7] | MIC [8] | MIC [9] | MIC [10] | remaining at 1 h [11] | remaining at 24 h [12] | LD50 at 168 h [13] |
| --- | --- | --- | --- | --- | --- | --- | --- | --- | --- | --- | --- | --- | --- |
| COc1ccc2c(c[n+]3c4c2ccc2c5c(cc(c24)CC3)OCO5)c1OC.[Br-] | > 64 µg/mL | > 64 µg/mL | > 64 µg/mL | > 64 µg/mL | > 64 µg/mL | > 64 µg/mL | > 64 µg/mL | > 64 µg/mL | > 64 µg/mL | > 64 µg/mL | – | – | – |
| COc1ccc2c(c[n+]3c4c2cc(Cc2ccc(C#N)cc2)c2c5c(cc(c24)CC3)OCO5)c1OC.[Br-] | > 64 µg/mL | > 64 µg/mL | > 64 µg/mL | > 64 µg/mL | > 64 µg/mL | > 64 µg/mL | > 64 µg/mL | > 64 µg/mL | > 64 µg/mL | > 64 µg/mL | – | – | – |
| COc1ccc2c(c[n+]3c4c2cc(C(C)c2ccccc2)c2c5c(cc(c24)CC3)OCO5)c1OC.[Br-] (stereo not drawn) | 2 µg/mL | 2 µg/mL | 2 µg/mL | 4 µg/mL | 1 µg/mL | 4 µg/mL | 2 µg/mL | 2 µg/mL | 2 µg/mL | 2 µg/mL | 91.2% | 77.3% | 41.2 mg/kg |
| C[C@H]1COc2c(N3CCN(C)CC3)c(F)cc3c(=O)c(C(=O)O)cn1c23.C[C@H]1COc2c(N3CCN(C)CC3)c(F)cc3c(=O)c(C(=O)O)cn1c23.O [LEVOFLOXACIN] | 0.125 µg/mL | 0.125 µg/mL | 0.125 µg/mL | 0.125 µg/mL | 0.125 µg/mL | 8 µg/mL | 32 µg/mL | 32 µg/mL | 32 µg/mL | 32 µg/mL | – | – | – |
| COc1ccc2c(c[n+]3c4c2cc(Cc2cc(C)cc(C)c2)c2c5c(cc(c24)CC3)OCO5)c1OC.[Br-] | 4 µg/mL | 4 µg/mL | 4 µg/mL | 8 µg/mL | 2 µg/mL | 8 µg/mL | 4 µg/mL | 4 µg/mL | 4 µg/mL | 4 µg/mL | – | – | – |
| COc1ccc2c(c[n+]3c4c2cc(Cc2ccccc2[N+](=O)[O-])c2c5c(cc(c24)CC3)OCO5)c1OC.[Br-] | 8 µg/mL | 8 µg/mL | 16 µg/mL | 32 µg/mL | 8 µg/mL | 64 µg/mL | 8 µg/mL | 16 µg/mL | 8 µg/mL | 8 µg/mL | – | – | – |
| COc1ccc2c(c[n+]3c4c2cc(Cc2ccc(SC(F)(F)F)cc2)c2c5c(cc(c24)CC3)OCO5)c1OC.[Br-] | > 64 µg/mL | > 64 µg/mL | > 64 µg/mL | > 64 µg/mL | > 64 µg/mL | > 64 µg/mL | > 64 µg/mL | > 64 µg/mL | > 64 µg/mL | > 64 µg/mL | – | – | – |
| COC(=O)C(c1ccccc1)c1cc2c3ccc(OC)c(OC)c3c[n+]3c2c2c(cc4c(c12)OCO4)CC3.[Br-] (stereo not drawn) | > 64 µg/mL | > 64 µg/mL | > 64 µg/mL | > 64 µg/mL | > 64 µg/mL | > 64 µg/mL | > 64 µg/mL | > 64 µg/mL | > 64 µg/mL | > 64 µg/mL | – | – | – |
| COc1ccc2c(c[n+]3c4c2cc(Cc2c(F)cccc2F)c2c5c(cc(c24)CC3)OCO5)c1OC.[Br-] | 4 µg/mL | 4 µg/mL | 8 µg/mL | 8 µg/mL | 2 µg/mL | 8 µg/mL | 4 µg/mL | 4 µg/mL | 4 µg/mL | 2 µg/mL | – | – | – |
| COc1ccc2c(c[n+]3c4c2cc(Cc2ccc(F)cc2)c2c5c(cc(c24)CC3)OCO5)c1OC.[Br-] | 4 µg/mL | 4 µg/mL | 4 µg/mL | 4 µg/mL | 4 µg/mL | 8 µg/mL | 4 µg/mL | 2 µg/mL | 4 µg/mL | 4 µg/mL | – | – | – |
| COc1ccc2c(c[n+]3c4c2cc(Cc2ccc([N+](=O)[O-])cc2)c2c5c(cc(c24)CC3)OCO5)c1OC.[Br-] | > 64 µg/mL | > 64 µg/mL | > 64 µg/mL | > 64 µg/mL | > 64 µg/mL | > 64 µg/mL | > 64 µg/mL | > 64 µg/mL | > 64 µg/mL | > 64 µg/mL | – | – | – |
| COc1ccc2c(c[n+]3c4c2cc(Cc2ccc(OC(F)(F)F)cc2)c2c5c(cc(c24)CC3)OCO5)c1OC.[Br-] | 32 µg/mL | 64 µg/mL | 32 µg/mL | 64 µg/mL | 64 µg/mL | 64 µg/mL | 32 µg/mL | 32 µg/mL | 64 µg/mL | 64 µg/mL | – | – | – |
| COc1ccc2c(c[n+]3c4c2cc(Cc2ccccc2)c2c5c(cc(c24)CC3)OCO5)c1OC.[Br-] | 4 µg/mL | 4 µg/mL | 4 µg/mL | 4 µg/mL | 4 µg/mL | 8 µg/mL | 8 µg/mL | 4 µg/mL | 4 µg/mL | 4 µg/mL | – | – | – |
| COc1ccc2c(c[n+]3c4c2cc(Cc2cc(C(F)(F)F)cc(C(F)(F)F)c2)c2c5c(cc(c24)CC3)OCO5)c1OC.[Br-] | > 64 µg/mL | > 64 µg/mL | > 64 µg/mL | > 64 µg/mL | > 64 µg/mL | > 64 µg/mL | > 64 µg/mL | > 64 µg/mL | > 64 µg/mL | > 64 µg/mL | – | – | – |
| COc1ccc2c(c[n+]3c4c2cc(Cc2ccc(C)cc2)c2c5c(cc(c24)CC3)OCO5)c1OC.[Br-] | 2 µg/mL | 2 µg/mL | 2 µg/mL | 4 µg/mL | 2 µg/mL | 8 µg/mL | 4 µg/mL | 4 µg/mL | 2 µg/mL | 2 µg/mL | – | – | – |
| COc1ccc2c(c[n+]3c4c2cc(Cc2ccc(C(C)C)cc2)c2c5c(cc(c24)CC3)OCO5)c1OC.[Br-] | 8 µg/mL | 8 µg/mL | 8 µg/mL | 32 µg/mL | 16 µg/mL | 32 µg/mL | 32 µg/mL | 32 µg/mL | 16 µg/mL | 16 µg/mL | – | – | – |
| COc1ccc2c(c[n+]3c4c2cc(Cc2ccc(C(C)(C)C)cc2)c2c5c(cc(c24)CC3)OCO5)c1OC.[Br-] | 32 µg/mL | 32 µg/mL | 64 µg/mL | 64 µg/mL | 64 µg/mL | 64 µg/mL | 64 µg/mL | 64 µg/mL | 64 µg/mL | 64 µg/mL | – | – | – |
| COc1ccc2c(c[n+]3c4c2cc(Cc2cccc(C)c2)c2c5c(cc(c24)CC3)OCO5)c1OC.[Br-] | 2 µg/mL | 2 µg/mL | 4 µg/mL | 4 µg/mL | 2 µg/mL | 4 µg/mL | 4 µg/mL | 4 µg/mL | 2 µg/mL | 2 µg/mL | – | – | – |
| COc1ccc2c(c[n+]3c4c2cc(Cc2cccnc2)c2c5c(cc(c24)CC3)OCO5)c1OC.[Br-] | 16 µg/mL | 16 µg/mL | 32 µg/mL | > 64 µg/mL | 16 µg/mL | 32 µg/mL | 32 µg/mL | 32 µg/mL | 32 µg/mL | 32 µg/mL | – | – | – |
| COc1ccc2c(Cc3ccccc3)c3[n+](cc2c1OC)CCc1cc2c(cc1-3)OCO2.[Br-] | 32 µg/mL | 16 µg/mL | 64 µg/mL | 64 µg/mL | 32 µg/mL | 32 µg/mL | 32 µg/mL | 32 µg/mL | 64 µg/mL | 64 µg/mL | – | – | – |
| COc1ccc2c(c[n+]3c4c2cc(Cc2ccc(Cl)cc2)c2c5c(cc(c24)CC3)OCO5)c1OC.[Br-] | 8 µg/mL | 8 µg/mL | 8 µg/mL | 32 µg/mL | 8 µg/mL | 32 µg/mL | 8 µg/mL | 8 µg/mL | 4 µg/mL | 4 µg/mL | – | – | – |
| COc1ccc2c(c[n+]3c4c2cc(Cc2ccc(F)c(C(F)(F)F)c2)c2c5c(cc(c24)CC3)OCO5)c1OC.[Br-] | 32 µg/mL | 8 µg/mL | 32 µg/mL | 32 µg/mL | 32 µg/mL | 32 µg/mL | 16 µg/mL | 32 µg/mL | 16 µg/mL | 64 µg/mL | – | – | – |
| COc1ccc2c(c[n+]3c4c2cc(Cc2ccncc2)c2c5c(cc(c24)CC3)OCO5)c1OC.[Br-] | 64 µg/mL | 64 µg/mL | 64 µg/mL | 64 µg/mL | 64 µg/mL | 64 µg/mL | 64 µg/mL | 32 µg/mL | 64 µg/mL | 64 µg/mL | – | – | – |
| COc1ccc2c(c[n+]3c4c2cc(Cc2ccc(Br)cc2)c2c5c(cc(c24)CC3)OCO5)c1OC.[Br-] | 16 µg/mL | 16 µg/mL | 16 µg/mL | 32 µg/mL | 16 µg/mL | 64 µg/mL | 16 µg/mL | 16 µg/mL | 16 µg/mL | 16 µg/mL | – | – | – |
| COC(=O)c1ccc(Cc2cc3c4ccc(OC)c(OC)c4c[n+]4c3c3c(cc5c(c23)OCO5)CC4)cc1.[Br-] | 32 µg/mL | 64 µg/mL | 32 µg/mL | 64 µg/mL | 32 µg/mL | 64 µg/mL | 32 µg/mL | 64 µg/mL | 64 µg/mL | > 64 µg/mL | – | – | – |
| COc1ccc2c(c[n+]3c4c2cc(Cc2ccc(F)cc2F)c2c5c(cc(c24)CC3)OCO5)c1OC.[Br-] | 4 µg/mL | 2 µg/mL | 4 µg/mL | 8 µg/mL | 4 µg/mL | 4 µg/mL | 4 µg/mL | 4 µg/mL | 2 µg/mL | 2 µg/mL | – | – | – |
